Literature values as cited in patent US20220152000A1, “PROLONGED RELEASE FORMULATION COMPRISING TACROLIMUS” (PHARMATHEN S.A., priority 2019, published 2022).
≈ marks a conversion by molar mass, not a printed value.

What was measured:
CYP3A4 isoenzyme = target: T1, CYP3A4 isoenzyme (Homo sapiens, UniProt P08684); settings: gut wall and liver
T1 construct: metabolized by the CYP3A4 isoenzyme in the gut wall and liver; from tissue; host or cells: gut wall and liver

[1] = simultaneous ingestion of food versus fasted

T1 sequence (P08684 whole entry): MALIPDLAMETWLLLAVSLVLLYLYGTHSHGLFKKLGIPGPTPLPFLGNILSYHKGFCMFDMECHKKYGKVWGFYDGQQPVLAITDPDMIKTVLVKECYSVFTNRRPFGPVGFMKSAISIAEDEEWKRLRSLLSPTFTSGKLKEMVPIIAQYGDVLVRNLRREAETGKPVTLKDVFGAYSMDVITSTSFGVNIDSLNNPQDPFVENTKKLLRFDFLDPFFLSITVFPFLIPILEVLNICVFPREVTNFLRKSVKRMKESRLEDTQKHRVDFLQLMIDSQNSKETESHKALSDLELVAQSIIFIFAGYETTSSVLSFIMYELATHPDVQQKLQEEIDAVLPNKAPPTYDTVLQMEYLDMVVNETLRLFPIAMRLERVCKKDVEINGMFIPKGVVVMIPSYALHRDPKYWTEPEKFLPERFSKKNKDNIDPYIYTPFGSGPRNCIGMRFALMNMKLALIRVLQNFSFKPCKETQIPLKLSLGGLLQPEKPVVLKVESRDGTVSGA

C=CC[C@@H]1/C=C(\C)C[C@H](C)C[C@H](OC)[C@H]2O[C@@](O)(C(=O)C(=O)N3CCCC[C@H]3C(=O)O[C@H](/C(C)=C/[C@@H]3CC[C@@H](O)[C@H](OC)C3)[C@H](C)[C@@H](O)CC1=O)[C@H](C)C[C@@H]2OC [Tacrolimus]
Metabolism by CYP3A4 (CYP3A4 isoenzyme): extensively metabolized
Absorption after oral administration, effect of food [1]: negatively influenced by simultaneous ingestion of food
Solubility in ethanol (ethanol): 25 mg/mL (≈ 31.1 mM)
Solubility in hexane, petroleum ether (hexane, petroleum ether): sparingly soluble
Solubility in organic solvents (methanol, ethanol, acetone, ethyl acetate, diethyl ether, chloroform, dicloromethane): soluble
Solubility in water (water): insoluble
